Laboratory results as given in patent US20240166603A1, “Method of Treating Cancer With Atpenin A5 Derviatives” (Texas Tech University System, priority 2018, published 2024).
Converted amounts (≈) assume the structure as drawn.

How the values were obtained:
[1] = target: T1, mitochondrial complex II (CII) (Rattus norvegicus, UniProt P21913+Q641Z9+Q6PCT8)
LNCaP cells = assay: Potentiation of Enzalutamide in LNCaP cells (FIG. 9); assay type: cell-based
[2] = target: Complex I (NADH ubiquinone-oxidoreductase) (Mus musculus, UniProt P03888+Q91WD5+Q9DC70); assay: Complex I inhibition assay, mouse cardiac mitochondria; conditions: Table 3
[3] = target: T1, mitochondrial complex II (CII); assay: Complex II inhibition assay, isolated rat heart mitochondria; conditions: conversion of the nM value
[4] = test system: WPMY-1 prostate stromal cells; assay: Cytotoxicity, WPMY-1 prostate stromal cells; assay type: cell-based; conditions: Homo sapiens
in vivo = conditions: 1 mg/kg
[5] = test system: 22Rv1 prostate cancer cells; assay: Cytotoxicity MTS assay, 22Rv1
HEK293 cells = assay: Cytotoxicity MTS assay, HEK293
22Rv1 cells = assay: Metabolic parameters, Seahorse XF Extracellular Flux Analyzer; assay type: cell-based, human; conditions: 48 hour incubation
Procedure: Next, the inventors determined the effect of complex II inhibition by the developed inhibitors on mitochondrial metabolic processes. The effect of 16c on electron transport parameters of 22Rv1 cells after 48 hour incubation was studied using a Seahorse XF Extracellular Flux Analyzer.
Assessment of Metabolic Parameters. Changes in oxygen consumption rate were measured using a XF24 Extracellular Flux Analyzer (Seahorse Bioscience, Billerica, MA). 22Rv1 cells were plated in XF24-well plates (40,000 cells/well) and allowed to adapt overnight. Treatments were performed with 16c at concentrations of 1, 10, 20, 30, 50 and 100 μg/mL and incubated for 48 hours. Mito Stress test was performed using oligomycin (10 μM), FCCP (5 μM) and Rotenone/Antimycin A (5 μM) based on the manufacturer's recommended protocol.

[6] = test system: PC3 prostate cancer cells; assay: Cytotoxicity MTS assay, PC3; conditions: Homo sapiens, 48 h, read-out: PC3 IC50
[7] = test system: DU-145 prostate cancer cells; assay: Cytotoxicity MTS assay, DU-145; conditions: Homo sapiens, DU-145, 48 h, read-out: DU-145 IC50
3T3 cells = assay: Cytotoxicity, 3T3 mouse embryonic fibroblast cells; assay type: cell-based; conditions: NIH3T3
[8] = test system: PC3 prostate cancer cells under hypoxia; assay: Cell death under hypoxia, microfluidic chip, Annexin V and Sytox Green; conditions: 10 μM, hypoxia

T1 sequence (P21913 31-282): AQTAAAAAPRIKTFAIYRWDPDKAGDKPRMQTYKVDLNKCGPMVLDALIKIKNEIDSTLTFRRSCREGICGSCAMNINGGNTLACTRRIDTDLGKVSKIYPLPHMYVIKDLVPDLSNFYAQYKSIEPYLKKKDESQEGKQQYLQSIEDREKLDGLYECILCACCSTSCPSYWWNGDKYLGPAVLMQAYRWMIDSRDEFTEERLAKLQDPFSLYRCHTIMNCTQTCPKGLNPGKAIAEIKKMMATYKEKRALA
T1 sequence (Q641Z9 30-169 limits assumed): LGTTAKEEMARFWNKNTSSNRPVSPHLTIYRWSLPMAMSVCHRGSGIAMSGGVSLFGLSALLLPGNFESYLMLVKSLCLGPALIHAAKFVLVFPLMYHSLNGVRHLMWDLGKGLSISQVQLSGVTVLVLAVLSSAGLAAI
T1 sequence (Q6PCT8 57-159): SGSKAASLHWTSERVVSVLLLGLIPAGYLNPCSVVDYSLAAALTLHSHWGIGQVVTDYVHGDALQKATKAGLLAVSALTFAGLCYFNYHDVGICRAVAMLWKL
T1 sequence (Q920L2 35-656 partner): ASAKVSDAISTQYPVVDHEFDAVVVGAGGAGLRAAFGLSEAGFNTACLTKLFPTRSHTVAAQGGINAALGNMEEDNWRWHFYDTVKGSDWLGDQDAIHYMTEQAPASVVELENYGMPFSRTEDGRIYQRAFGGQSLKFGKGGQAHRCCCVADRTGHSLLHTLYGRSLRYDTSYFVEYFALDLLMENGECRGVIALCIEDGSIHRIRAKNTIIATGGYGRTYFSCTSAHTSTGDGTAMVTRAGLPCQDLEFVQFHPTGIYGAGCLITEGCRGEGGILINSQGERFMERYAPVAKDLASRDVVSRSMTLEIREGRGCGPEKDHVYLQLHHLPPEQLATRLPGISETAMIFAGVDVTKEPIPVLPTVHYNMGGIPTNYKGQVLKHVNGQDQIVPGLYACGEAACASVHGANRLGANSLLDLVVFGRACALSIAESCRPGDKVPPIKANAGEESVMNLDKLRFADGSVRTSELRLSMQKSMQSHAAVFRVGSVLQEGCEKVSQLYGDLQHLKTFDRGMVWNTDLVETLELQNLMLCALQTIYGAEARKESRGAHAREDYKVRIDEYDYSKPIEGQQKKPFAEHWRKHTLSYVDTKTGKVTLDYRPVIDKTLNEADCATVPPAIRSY

SMILES: CCCCCC(=O)c1c(O)nc(OC)c(OC)c1O [Compound 16c, 1-(2,4-dihydroxy-5,6-dimethoxypyridin-3-yl)hexan-1-one]
- LLE (Ligand-Lipophilicity Efficiency) [1]: 5.62
- effect on Enzalutamide (ENZA) in LNCaP cells (LNCaP cells): potentiates Enzalutamide
- Selectivity Ratio (CII:CI) [2]: >156
- CII IC50 expressed [3]: 0.01723 µg/mL
- IC50 [4]: 18.4 µg/mL (≈ 68.3 µM)
- AUC (in vivo): 19.6 ng·h/mL
- Vd (in vivo): 89.5 L/kg
- half-life (in vivo): 103 min
- AUC(0-inf) (in vivo; AUCinf,obs): 8.3 ng·h/mL
- AUC(0-inf) (in vivo; AUCinf,pred): 8.32 ng·h/mL
- Tmax (in vivo): 22.8 min
- AUCinf,obs (in vivo; female): 23.61 ng·h/mL
- AUCinf,pred (in vivo; female): 23.63 ng·h/mL
- t1/2λz (in vivo; female): 104 min
- AUC(0-inf) (in vivo; female, AUCinf,obs): 36 ng·h/mL
- AUC(0-inf) (in vivo; female, AUCinf,pred): 36 ng·h/mL
- Cmax (in vivo; female): 140 ng/mL
- Tmax (in vivo; female): 15 min
- Vssobs (in vivo; male): 134.64772 L/kg
- Vsspred (in vivo; male): 129.16994 L/kg
- t1/2λz (in vivo; male): 103 min
- AUC(0-inf) (in vivo; male, AUCinf,obs): 10.7 ng·h/mL
- AUC(0-inf) (in vivo; male, AUCinf,pred): 10.6 ng·h/mL
- Cmax (in vivo; male): 23.9 ng/mL
- Tmax (in vivo; male): 30 min
- IC50 ([5]; Homo sapiens, 22Rv1, 48 h, read-out: 22Rv1 IC50): 11 µg/mL (≈ 40.8 µM)
- 22Rv1 IC50 ([5]; MTS, 48 hours unless otherwise noted): 11 µg/mL
- increase in efficacy relative to Enzalutamide, inhibition of cancer growth in vitro ([5]; cell line not given): 10 fold
- selectivity for prostate cancer cells over HEK293 (HEK293 cells; 16c: DU-145 and 22Rv1, 16k: 22Rv1): 7.4 fold
- IC50 (HEK293 cells; Homo sapiens, HEK293, 48 h, read-out: HEK293 IC50): 81 µg/mL (≈ 301 µM)
- ATP production (22Rv1 cells): inhibition of ATP production
- basal respiration (22Rv1 cells): reducing basal respiration
- maximal respiration (22Rv1 cells): reduction of maximal respiration
- oxygen consumption rate (22Rv1 cells): substantially reduced in a dose-dependent manner
- IC50 [6]: 38 µg/mL (≈ 141 µM)
- IC50 [7]: 12 µg/mL (≈ 44.6 µM)
- IC50 (3T3 cells): 31.8 µg/mL (≈ 118 µM)
- cell death [8]: 20%
